As usually defined, the pIC50 is the negative decadic logarithm of the IC50, by convention in mol/L. Read a low pIC50 as a large IC50. Broadly, the AUC(0-t) is the area under the concentration-time curve up to a stated or last time point. What is called pEC50 is −log10 of the EC50, conventionally taken in molar units. A high value points to a low EC50. As a reminder, the half-life is the time in which the quantity being followed falls by half. Read a high half-life as slow loss.

We go through one molecule from ChEMBL document CHEMBL5357082, “Identification and Optimization of Small Molecule Pyrazolopyrimidine TLR7 Agonists for Applications in Immuno-oncology” (ACS Med Chem Lett, 2024).

pEC50, pIC50: −log10 of the molar value.

In data set [1] the target is Cytochrome P450 3A4 (Homo sapiens, UniProt P08684). Nature of the data set: Inhibition of CYP3A4 (unknown origin) using BFC as substrate. It is filed as ADME.
Data set [2] in a line: AUClast in nontumor bearing Balb/C mouse at 0.5 mg/kg. In kind it is ADME, organism-based. Set-up: dose 0.5 mg/kg. As to conditions: in vivo.
The target of data set [3] is T1, Toll-like receptor 7 (Homo sapiens, UniProt Q9NYK1).
T1 sequence (Q9NYK1 whole entry): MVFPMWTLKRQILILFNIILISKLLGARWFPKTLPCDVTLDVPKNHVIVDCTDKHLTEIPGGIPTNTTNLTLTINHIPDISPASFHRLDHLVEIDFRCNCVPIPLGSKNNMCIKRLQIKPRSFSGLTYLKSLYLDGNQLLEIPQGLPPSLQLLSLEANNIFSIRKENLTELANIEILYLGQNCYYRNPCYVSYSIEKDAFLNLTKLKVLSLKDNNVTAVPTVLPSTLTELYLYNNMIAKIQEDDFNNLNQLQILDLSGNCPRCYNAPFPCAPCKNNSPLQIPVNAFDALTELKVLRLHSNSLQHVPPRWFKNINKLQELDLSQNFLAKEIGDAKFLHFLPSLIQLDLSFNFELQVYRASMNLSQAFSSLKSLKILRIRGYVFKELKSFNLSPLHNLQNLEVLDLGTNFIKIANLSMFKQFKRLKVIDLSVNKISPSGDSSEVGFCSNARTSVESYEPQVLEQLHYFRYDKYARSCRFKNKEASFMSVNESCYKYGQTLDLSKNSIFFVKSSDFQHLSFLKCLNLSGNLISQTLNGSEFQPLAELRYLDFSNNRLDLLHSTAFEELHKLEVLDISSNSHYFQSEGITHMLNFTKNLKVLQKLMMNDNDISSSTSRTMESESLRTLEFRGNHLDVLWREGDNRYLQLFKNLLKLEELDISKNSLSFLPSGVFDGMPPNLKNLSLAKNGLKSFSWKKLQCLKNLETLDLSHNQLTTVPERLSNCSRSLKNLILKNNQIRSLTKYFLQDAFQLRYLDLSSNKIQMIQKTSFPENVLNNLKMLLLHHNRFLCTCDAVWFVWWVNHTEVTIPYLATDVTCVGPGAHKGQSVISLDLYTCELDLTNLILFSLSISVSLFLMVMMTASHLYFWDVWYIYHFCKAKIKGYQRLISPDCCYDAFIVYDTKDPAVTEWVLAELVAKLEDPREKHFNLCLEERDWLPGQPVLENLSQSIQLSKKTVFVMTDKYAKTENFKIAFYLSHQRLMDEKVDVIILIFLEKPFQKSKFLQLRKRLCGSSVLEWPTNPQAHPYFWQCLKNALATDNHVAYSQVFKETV
Nature of the data set: Agonist activity at human TLR7 in HEK-Blue hTLR7 cells harboring SEAP reporter transgene incubated for 18 hrs by quanti-blue reagent based assay. In kind it is cell-based.

The target in data set [4] is T2, Cytochrome P450 1A2 (Homo sapiens, UniProt P05177).
T2 sequence (P05177 whole entry): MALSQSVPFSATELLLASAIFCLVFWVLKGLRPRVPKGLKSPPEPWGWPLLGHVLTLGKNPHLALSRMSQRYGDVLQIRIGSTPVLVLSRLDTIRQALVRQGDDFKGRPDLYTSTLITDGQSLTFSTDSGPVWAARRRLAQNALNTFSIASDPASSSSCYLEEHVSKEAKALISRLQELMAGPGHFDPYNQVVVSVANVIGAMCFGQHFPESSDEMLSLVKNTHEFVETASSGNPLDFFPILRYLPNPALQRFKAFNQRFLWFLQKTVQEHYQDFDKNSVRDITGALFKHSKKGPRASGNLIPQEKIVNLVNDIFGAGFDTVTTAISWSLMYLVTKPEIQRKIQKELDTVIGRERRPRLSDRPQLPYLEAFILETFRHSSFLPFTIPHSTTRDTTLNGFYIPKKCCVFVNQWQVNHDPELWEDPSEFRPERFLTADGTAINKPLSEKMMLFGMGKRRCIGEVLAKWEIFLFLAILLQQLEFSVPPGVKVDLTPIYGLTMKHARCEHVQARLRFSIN
As to the kind of experiment: Inhibition of CYP1A2 (unknown origin). It is filed as ADME.

Data set [5] is described as follows: Half life in nontumor bearing Balb/C mouse at 0.5 mg/kg. As to conditions: in vivo. It is filed as ADME, organism-based.
Data set [6] in a line: Metabolic stability in human liver microsomes assessed as compound remaining at 0.5 uM incubated for 10 mins in presence of NADPH by UV absorbance based assay. It is filed as ADME, Microsome. As to conditions: read-out: Stability.
The target in data set [7] is Cytochrome P450 2C19 (Homo sapiens, UniProt P33261). As to the kind of experiment: Inhibition of CYP2C19 (unknown origin). In kind it is ADME.
For data set [8], the target named is T3, Toll-like receptor 8 (Homo sapiens, UniProt Q9NR97).
T3 sequence (Q9NR97 whole entry): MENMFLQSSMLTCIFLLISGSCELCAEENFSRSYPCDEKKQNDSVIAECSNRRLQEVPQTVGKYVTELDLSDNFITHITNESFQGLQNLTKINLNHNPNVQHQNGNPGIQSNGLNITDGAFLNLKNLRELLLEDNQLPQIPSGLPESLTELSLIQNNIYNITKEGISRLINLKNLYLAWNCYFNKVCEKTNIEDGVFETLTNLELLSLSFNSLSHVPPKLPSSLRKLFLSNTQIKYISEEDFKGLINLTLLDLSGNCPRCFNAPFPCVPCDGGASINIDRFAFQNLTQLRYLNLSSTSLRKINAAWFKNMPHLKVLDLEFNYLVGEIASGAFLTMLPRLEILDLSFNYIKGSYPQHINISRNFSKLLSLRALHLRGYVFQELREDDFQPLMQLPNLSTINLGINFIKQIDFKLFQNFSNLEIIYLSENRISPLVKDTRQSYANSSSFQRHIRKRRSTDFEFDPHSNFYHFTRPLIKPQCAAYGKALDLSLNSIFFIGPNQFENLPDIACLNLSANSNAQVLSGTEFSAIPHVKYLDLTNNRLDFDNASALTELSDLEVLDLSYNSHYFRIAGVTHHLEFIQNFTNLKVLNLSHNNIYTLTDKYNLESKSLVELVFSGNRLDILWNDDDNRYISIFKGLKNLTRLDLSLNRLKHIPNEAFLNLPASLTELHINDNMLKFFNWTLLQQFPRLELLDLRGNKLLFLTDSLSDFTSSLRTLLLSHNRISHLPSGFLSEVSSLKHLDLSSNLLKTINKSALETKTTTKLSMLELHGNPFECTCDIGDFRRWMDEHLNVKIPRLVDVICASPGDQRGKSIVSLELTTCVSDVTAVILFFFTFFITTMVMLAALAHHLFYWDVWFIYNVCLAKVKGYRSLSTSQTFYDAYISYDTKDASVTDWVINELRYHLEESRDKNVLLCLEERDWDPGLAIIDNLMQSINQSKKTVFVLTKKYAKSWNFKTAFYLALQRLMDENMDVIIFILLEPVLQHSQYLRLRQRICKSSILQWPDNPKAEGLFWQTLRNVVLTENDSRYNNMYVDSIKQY
Nature of the data set: Agonist activity at human TLR8.

Chain of Cytochrome P450 2C19 (P33261 whole entry): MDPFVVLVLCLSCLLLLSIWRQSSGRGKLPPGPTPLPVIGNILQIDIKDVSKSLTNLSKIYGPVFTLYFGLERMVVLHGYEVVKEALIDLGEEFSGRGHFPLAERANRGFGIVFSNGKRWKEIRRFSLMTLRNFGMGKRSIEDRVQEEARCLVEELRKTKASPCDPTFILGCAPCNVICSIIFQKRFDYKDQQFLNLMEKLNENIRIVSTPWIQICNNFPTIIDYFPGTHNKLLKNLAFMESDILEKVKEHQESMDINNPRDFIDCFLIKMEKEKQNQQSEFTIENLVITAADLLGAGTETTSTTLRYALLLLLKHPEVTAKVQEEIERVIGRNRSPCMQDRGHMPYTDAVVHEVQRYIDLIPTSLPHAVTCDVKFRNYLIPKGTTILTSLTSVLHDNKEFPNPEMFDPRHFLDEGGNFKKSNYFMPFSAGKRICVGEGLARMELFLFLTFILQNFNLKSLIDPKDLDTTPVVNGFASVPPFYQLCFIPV
Chain of Cytochrome P450 3A4 (P08684 whole entry): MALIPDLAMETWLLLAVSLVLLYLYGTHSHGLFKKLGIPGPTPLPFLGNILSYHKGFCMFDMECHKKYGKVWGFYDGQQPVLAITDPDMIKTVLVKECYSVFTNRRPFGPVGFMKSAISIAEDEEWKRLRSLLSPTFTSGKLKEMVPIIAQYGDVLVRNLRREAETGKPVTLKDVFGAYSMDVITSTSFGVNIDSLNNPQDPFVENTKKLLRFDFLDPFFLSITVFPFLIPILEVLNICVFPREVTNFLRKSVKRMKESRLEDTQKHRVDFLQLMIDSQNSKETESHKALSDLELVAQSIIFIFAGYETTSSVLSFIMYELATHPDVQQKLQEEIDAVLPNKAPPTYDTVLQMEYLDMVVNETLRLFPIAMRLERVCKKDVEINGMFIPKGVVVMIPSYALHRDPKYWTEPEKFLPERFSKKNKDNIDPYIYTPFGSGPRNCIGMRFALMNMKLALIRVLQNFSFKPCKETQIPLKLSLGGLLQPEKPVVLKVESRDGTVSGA

For `CCC[C@@H](CCO)Nc1nc(N)nc2cnn(Cc3ncc(C4CCN(C5CCOCC5)CC4)cc3OC)c12`, the pIC50 in data set [1], in data set [4] and in data set [7] was < 4.70 in each case. For the same molecule, the area under the curve AUC(0-t) in data set [2] was 0.655 µM·h. The negative logarithm of the EC50 (pEC50) in data set [3] is 7.89; in data set [8], < 5.30. Moreover, the half-life in data set [5] is 6.9 h. Also, in data set [6], the remaining at 10 min, 0.5 µM amounted to 86%.
